Source: patent EP1200395B1, “UREA DERIVATIVES AS INHIBITORS OF CCR-3 RECEPTOR” (KIRIN BEER KABUSHIKI KAISHA, priority 1999, dated 2001)

Each compound was assayed against T1, CCR-3 (Homo sapiens, UniProt P51677) (assay: Eotaxin-induced chemotaxis of CCR-3 transfectant cells (CCR3/U937)). Conditions: 10 µM test compound; eotaxin 1 x 10^-9 M; CCR3/U937 cells (Table 3a).
T1 sequence (P51677 1-355): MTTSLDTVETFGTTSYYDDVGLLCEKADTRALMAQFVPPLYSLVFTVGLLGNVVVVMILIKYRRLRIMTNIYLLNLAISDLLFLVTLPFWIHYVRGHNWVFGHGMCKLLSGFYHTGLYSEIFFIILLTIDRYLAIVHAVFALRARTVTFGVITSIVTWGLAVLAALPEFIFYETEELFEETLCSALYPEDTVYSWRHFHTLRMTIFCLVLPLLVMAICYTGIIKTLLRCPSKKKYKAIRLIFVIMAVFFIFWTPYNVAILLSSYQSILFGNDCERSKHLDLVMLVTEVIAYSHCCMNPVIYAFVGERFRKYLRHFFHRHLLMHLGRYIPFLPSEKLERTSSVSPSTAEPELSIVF
Assay type: cell-based
Parameters: expressed in transfected cells; host or cells: U937
Method: The inhibitory activity of the compounds against eotaxin-induced chemotaxis was determined by measuring the inhibition of migration of CCR-3 transfectant cells (CCR3/U937), using a minor modification of the method described by Ohashi, H. et al., Int Arch Allergy Immunol. […] The chemotaxis assay was performed in a 24-well culture plate. Human eotaxin suspended in assay medium was added to the wells at 1 x 10^-9 M along with test compounds at various concentrations. For a positive control, eotaxin was added to the wells without a test compound, and for a negative control, neither eotaxin nor a test compound was added to the wells. Chemotaxicell (Kurabo Co., Ltd.) having 5 micrometers pore size were inserted into each well and 100 micro liters of CCR-3 transfectant cells suspension were added to the top chamber. The plates were incubated at 37 °C for 1 hour. After incubation, migrated cells in lower wells were diluted and counted by particle size distribution analyzer (CDP-500, Sysmex Co., Ltd.).

Chemotaxis Assay 10 µM (inhibition %) [%]	Structure (SMILES)
100	COC(=O)CCCN(CCCNC(=O)Nc1ccc(Br)cc1)C1CCCc2ccccc21 (stereo not drawn) [Compound 29, methyl 4-[[3-(4-bromophenylureido)propyl](1,2,3,4-tetrahydro-1-naphthyl)amino]butylate]
100	CSc1cccc(NC(=O)NCCCN(CCCC(=O)O)C2CCCc3ccccc32)c1 (stereo not drawn) [Compound 263]
100	CCN(CCCNC(=O)Nc1ccccc1)C1CCCc2ccccc21 (stereo not drawn) [Compound 192]
37	COc1ccc(NC(=O)NCCCN(CCCC(=O)O)C2CCCc3ccccc32)c(OC)c1 (stereo not drawn) [Compound 86]
86	O=C(NCCCN(CCc1ccc(Cl)cc1)CC1CCCCC1)Nc1ccccc1 [Compound 240]
88	COC(=O)CCCN(CCCNC(=O)Nc1ccc(Br)cc1)Cc1ccc2c(c1)OCO2 [Compound 40]
89	CCN(CCCNC(=O)Nc1ccccc1)C1CCc2ccccc21 (stereo not drawn) [Compound 234]
97	CCOC(=O)c1cccc(NC(=O)NCCCN(CCCC(=O)O)C2CCCc3ccccc32)c1 (stereo not drawn) [Compound 236]
100	CCC(c1ccccc1)N(CCCNC(=O)Nc1ccc(Br)cc1)CCCC(=O)O (stereo not drawn) [Compound 271]
73	CCOC(=O)CCCCCN(CCCNC(=O)Nc1ccccc1)CCc1ccc(Cl)cc1 [Compound 242]
44	COc1ccc(CCN(CCCNC(=O)Nc2ccc(Br)cc2)CCCC(=O)O)cc1OC [Compound 73]
100	COC(=O)CCCCN(CCCNC(=O)Nc1ccccc1)CCc1ccc(Cl)cc1 [Compound 241]
100	CC(=O)c1ccc(NC(=O)NCCCN(CCCC(=O)O)C2CCCc3ccccc32)cc1 (stereo not drawn) [Compound 278]
75	CCOC(=O)C1CC1CN(CCCNC(=O)Nc1ccc(Br)cc1)C1CCCc2ccccc21 (stereo not drawn) [Compound 224]
100	CC(C)N(CCCNC(=O)Nc1ccccc1)CCc1ccc(Cl)cc1 [Compound 276]
99	CCN(CCCCNC(=O)Nc1ccc([N+](=O)[O-])cc1)CCc1ccc(Cl)cc1 [Compound 5]
100	CC(C)(c1ccccc1)N(CCCNC(=O)Nc1ccccc1Br)CCCC(=O)O [Compound 195]
86	CCN(CCCNC(=O)Nc1ccccc1)CCc1ccccc1 [Compound 11]

Same assay, conditions: 10 µM test compound; eotaxin 1 x 10^-9 M; CCR3/U937 cells (Table 3c)

Chemotaxis Assay 10 µM (inhibition %) [%]	Structure (SMILES)
93	CC[N+](CC)(CCCNC(=O)Nc1ccccc1)C1CCc2ccccc21.[I-] (stereo not drawn) [compound 311]
100	CC[N+](CCCNC(=O)Nc1ccc(Br)cc1)(CCCC(=O)OC)C1CCc2ccccc21.[I-] (stereo not drawn) [compound 314]
100	CC[N+](CC)(CCCNC(=O)Nc1ccccc1)CCc1ccc(F)cc1.[I-] [Compound 306]
100	C=CC[N+](CC)(CCCNC(=O)Nc1ccccc1)CCc1ccc(Cl)cc1.[I-] (stereo not drawn) [Compound 301]
97	CC[N+](CCCNC(=O)Nc1ccccc1)(CCc1ccc(Cl)cc1)Cc1ccc(C(C)(C)C)cc1.[I-] (stereo not drawn) [compound 342]
100	CC[N+](CCCNC(=O)Nc1ccccc1)(CCc1ccc(Cl)cc1Cl)Cc1ccccc1.[I-] (stereo not drawn) [compound 327]
100	CC[N+](CCCNC(=O)Nc1ccccc1)(CCc1ccc(Cl)cc1)CCc1ccc(Cl)cc1.[I-] [compound 317]
100	CC[N+](CCCNC(=O)Nc1ccccc1)(CCc1cccc(Cl)c1)Cc1ccccc1.[I-] (stereo not drawn) [compound 328]
59	CC[N+](CCCNC(=O)Nc1ccccc1)(CCc1ccc(Cl)cc1)Cc1ccc(OCc2ccccc2)c(OCc2ccccc2)c1.[I-] (stereo not drawn) [compound 350]

Same assay, conditions: U-937; 10 µM test compound; eotaxin 1 x 10^-9 M; CCR3/U937 cells (Table 3a)

inhibition at 10 µM [%]	Structure (SMILES)
100	CCN(CCCNC(=O)Nc1ccccc1OC)CCc1ccc(Cl)cc1 [Compound 9]
78	COC(=O)CCCN(CCCNC(=O)Nc1ccc(Br)cc1)Cc1cccs1 [Compound 39]
100	CC(c1ccc(F)cc1)N(CCCNC(=O)Nc1ccc(Br)cc1)CCCC(=O)O (stereo not drawn) [Compound 269, 4-[[3-(4-Bromophenylureido)propyl][1-(4-fluorophenyl)ethyl]amino]butanoic acid]
100	NC(=O)CCCN(CCCNC(=O)Nc1ccc(Br)cc1)C1CCCc2ccccc21 (stereo not drawn) [Compound 193, 4-[[3-(4-Bromophenylureido)propyl](1,2,3,4-tetrahydro-1-naphthyl)amino]butanamide]
100	COc1ccc([C@@H](C)N(CCCNC(=O)Nc2ccc(Br)cc2)CCCC(=O)O)cc1 [Compound 227, 4-[[3-(4-Bromophenylureido)propyl][(1R)-1-(4-methoxyphenyl)ethyl]amino]butanoic acid]
100	O=C(O)CCCN(CCCNC(=O)Nc1ccc(Br)cc1)[C@@H]1CCc2ccccc21 [Compound 179, 4-[[3-(4-Bromophenylureido)propyl][(1R)-1-indanyl]amino]butanoic acid]
99	O=C(NCCCN(CCCc1nnn[nH]1)C1CCCc2ccccc21)Nc1ccc(Br)cc1 (stereo not drawn) [Compound 218, 3-[[3-(4-Bromophenylureido)propyl](1,2,3,4-tetrahydro-1-naphthyl)amino]-1-(1H-tetrazol-5-yl)propane]

Same assay, conditions: U-937; 10 µM test compound; eotaxin 1 x 10^-9 M; CCR3/U937 cells (Table 3c)

inhibition at 10 µM [%]	Structure (SMILES)
100	CC[N+](CCCNC(=O)Nc1ccccc1)(CCc1ccc(Cl)cc1)Cc1cc(F)ccc1F (stereo not drawn) [Compound 351, [3-(Phenylureido)propyl][2-(4-chlorophenyl)ethyl](2,5-difluorobenzyl)ethylammonium iodide]
93	CC[N+](CCCNC(=O)Nc1ccccc1)(CCc1ccc(Cl)cc1)Cc1ccc(C(=O)O)cc1 (stereo not drawn) [Compound 322, [3-(Phenylureido)propyl][2-(4-chlorophenyl)ethyl][4-(carboxy)benzyl]ethylammonium iodide]

Same assay, conditions: test compound 0.1 µg/ml; eotaxin 1 x 10^-9 M; CCR3/U937 transfectants; 37 °C, 1 hour

Chemotaxis Assay 0.1 µg/ml (inhibition %) [%]	Structure (SMILES)
66	CC[N+](CCCNC(=O)Nc1ccccc1)(CCc1cccc(F)c1)CC1CCC1.[I-] (stereo not drawn) [compound 421]
43	CC[N+](CCCNC(=O)Nc1ccc(C(F)(F)F)cc1)(CCOCCOC)CCc1ccc(Cl)cc1.[I-] (stereo not drawn) [compound 386]
71	CCC(CC)C[N+](CC)(CCCNC(=O)Nc1ccc(C#N)cc1)CCc1cccc(Cl)c1.[I-] (stereo not drawn) [compound 402]
47	CC[N+](CCF)(CCCNC(=O)Nc1ccc(C(F)(F)F)cc1)CCc1cccc(Cl)c1.[I-] (stereo not drawn) [compound 391]
92	C=C(C)C[N+](CC)(CCCNC(=O)Nc1ccccc1)CCc1cccc(Cl)c1.[I-] (stereo not drawn) [compound 423]
96	CCC(CC)C[N+](CC)(CCCNC(=O)Nc1ccc(OC)cc1)CCc1ccc(Cl)c(Cl)c1.[I-] (stereo not drawn) [compound 449]
42	CC[N+](CC#N)(CCCNC(=O)Nc1ccccc1)CCc1cccc(Cl)c1.[I-] (stereo not drawn) [compound 411]
80	CCC(CC)C[N+](CC)(CCCNC(=O)Nc1ccc(Br)cc1)CCc1cccc(Cl)c1.[I-] (stereo not drawn) [compound 379]
76	CCC(CC)C[N+](CC)(CCCNC(=O)Nc1ccccc1)CCc1ccc(Cl)c(Cl)c1.[I-] (stereo not drawn) [compound 430]
